Marks after values point to notes of the source that are not given here.
Tests used:
MA-treated mice [1] = experiment: Methamphetamine (MA)-induced hyperthermia; type: in vivo; conditions: 24 mg/kg; MA 7.5 mg/kg i.p. x 4 at 2-h intervals
Method: Rectal temperature was recorded at 40 min after each MA treatment. […] Mice were sacrificed at 3 days after final MA injection.
FIGS. 10A-10B show effect of morphinans on the methamphetamine (MA)-induced hyperthermia. Mice received i.p. injections of MA (four injections of 7.5 mg/kg each) at 2-h intervals under the ambient temperature of 22.0±0.5° C. Temperatures were recorded at 40 min after each MA treatment (Arrow=MA injection).

MA-treated mice [2] = experiment: Nigral TH-IR in MA-treated mice; conditions: 24 mg/kg i.p.
MA-treated mice [3] = experiment: MA-induced FRA-IR in the striatum; conditions: morphinan 20 mg/kg i.p.; MA 1 mg/kg i.p./day x 7
Method: Therefore, brains were removed and used for immunocytochemical analysis at 18 h after the final cocaine/MA treatment. The coronal sections containing striatum were processed for FRA immunocytochemistry. […] The FRA antibody was used at 1:2,000 as the optimal dilution. The FRA-IR in the striatum was calculated using image analysis systems with a polaroid digital microscopic camera (Optimas version 6.2).

σ1 receptors = σ1 receptors (Homo sapiens, UniProt Q99720); conditions: cited from earlier work
Sequence of σ1 receptors (Q99720 whole entry): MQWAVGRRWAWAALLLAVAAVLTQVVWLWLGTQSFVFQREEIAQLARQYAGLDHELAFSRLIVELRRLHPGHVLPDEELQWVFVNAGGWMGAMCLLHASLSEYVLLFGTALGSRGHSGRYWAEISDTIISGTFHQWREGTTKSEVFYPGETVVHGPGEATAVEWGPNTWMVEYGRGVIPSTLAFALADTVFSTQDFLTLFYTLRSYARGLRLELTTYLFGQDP

cocaine-treated mice [4] = experiment: Cocaine-induced Fos-related antigen-immunoreactivity (FRA-IR) in the striatum; conditions: cocaine 5 mg/kg; morphinan 20 mg/kg i.p.
MA-treated mice [5] = experiment: Striatal dopamine and metabolites in MA-treated mice; type: in vivo; conditions: for effect on MA-induced reductions in striatal DA, DOPAC and HVA: 24 mg/kg pretreatment; for Concentration DA in the striatum: 3 days after final MA
Excerpt: Mice were sacrificed at 3 days after final MA injection.

MPTP-treated mice [6] = experiment: Striatal dopamine and metabolites (HPLC-EC) in MPTP-treated mice; conditions: for effect on MPTP-induced reductions in striatal DA, DOPAC and HVA: 24 mg/kg pretreatment; for Concentration DA in the striatum: mean ± S.E.M., 8 animals
Method: (§2) Each morphinan was administered 30 min prior to every injection of MPTP for last three days (from day 4th to day 7th). Animals were sacrificed 24 h after the last MPTP treatment.
Brains were rapidly removed and cut into 1 mm coronal sections on ice. The striatum was punched using a fine pasteur pipette (3, 21, 22), and stored at −70° C. DA and its metabolites, 3,4-dihydroxyphenylacetic acid (DOPAC) and homovanilic acid (HVA) were measured by HPLC-eletrochemical detection (3, 21, 22). Briefly, the striatum was homogenized in 0.2 M perchloric acid containing 3,4-dihydroxybenzylamine as an internal standard (10 mg wet weight of tissue per ml). The homogenate was centrifuged and a 20-μl aliquot of the supernatant was injected into the HPLC equipped with an ODS-C18 column. The mobile phase was comprised of 26 ml of acetonitrile, 21 ml of tetrahydrofuran and 960 ml of 0.15 M monochloroacetic acid (pH 3.0) containing 50 mg/l of EDTA and 200 mg/l of sodium octyl sulfate. The amount of DA, DOPAC and HVA were determined by comparison of peak height ratio of tissue sample with standards, and were expressed in nanograms per 100 mg of wet weight of tissue.
Each morphinan was administered 30 min before every injection of MPTP for last three days. Animals were sacrificed at 24 h after the last MPTP injection.

C57 BL/6 mice [7] = experiment: Conditioned place preference (psychological dependence) following repeated administration of morphinans or PCP; type: in vivo; conditions: 20 or 40 mg/kg i.p. (PCP 2.5 or 5 mg/kg); vs saline
Method: On day 14, the guillotine doors were raised. […] Data were analyzed between 0900 and 1700 hr.

C57 BL/6 mice [8] = experiment: Locomotor activity and locomotor pattern following repeated administration of morphinans or PCP; type: in vivo; conditions: for locomotor pattern (tracings): 40 mg/kg i.p. (PCP 5 mg/kg), FIG. 3; for marginal activity (circling behaviour; absolute turn angular): 20 or 40 mg/kg i.p./day x 7 (PCP 2.5 or 5 mg/kg), 3-min period; for marginal activity (circling behaviour; absolute turn angular) / locomotor activity (total distance moved): vs saline; for locomotor activity (total distance moved): 20 or 40 mg/kg i.p./day x 7 days, 30 min after final treatment
MA-treated mice [9] = experiment: MA-induced hyperlocomotion; type: in vivo; conditions: morphinan 20 mg/kg i.p. 30 min before MA 1 mg/kg i.p./day x 7
Method: FIGS. 39A-39D show effect of morphinans on the MA-induced hyperactivity in the mice. Each morphinan (20 mg/kg, i.p.) was administered 30 minutes prior to MA (1 mg/kg, i.p.). All treatments were performed for 7 days.

LPS-treated mice [10] = experiment: Nigral TH-IR in LPS-treated mice; type: in vivo; conditions: 24 mg/kg i.p.
Excerpt: FIGS. 8A-8B. […] Magnification=40×.
(§1) Control animals received striatal injection with PBS.

cocaine-treated mice [11] = experiment: Cocaine-induced hyperlocomotion; type: in vivo; conditions: for effect on locomotor activity induced by low dose of cocaine: cocaine 5 mg/kg i.p. x 7 days, morphinan 15 or 30 mg/kg (DF 20 mg/kg) i.p.; for effect on hyperactivity induced by high dose of cocaine: cocaine 20 mg/kg i.p. x 7 days, morphinan 15 or 30 mg/kg i.p. 30 min before
Method: FIGS. 34A-34B show effect of morphinans on the cocaine-induced hyperactivity in the mice. Morphinans (15 and 30 mg/kg, i.p.) were administered 30 minutes prior to cocaine (5 and 20 mg/kg, i.p.). Central activity means relatively non-specific locomotor activity in the center of the box. Marginal activity means circling behaviors. All treatments were performed for 7 days.
FIGS. 35A-35D show effect of dimemorfan (DF) on cocaine-induced hyperactivity in the mice. DF (20 mg/kg, i.p.) was administered 30 minutes prior to cocaine (5 and 20 mg/kg, i.p.). All treatments were performed for 7 days.

MPTP-treated mice [12] = experiment: Nigral tyrosine hydroxylase-like immunoreactivity in MPTP-treated mice; conditions: 24 mg/kg i.p.
Method: as §2

MPTP-treated mice [13] = experiment: Hypokinesia (reduction in locomotor activity) induced by MPTP; type: in vivo; conditions: 12 or 24 mg/kg i.p. 30 min before MPTP (20 mg/kg/day x 7), last three days
LPS-treated mice [14] = experiment: Striatal dopamine and metabolites in LPS-treated mice; type: in vivo; conditions: for effect on LPS-induced reductions in striatal DA, DOPAC and HVA: 24 mg/kg pretreatment; for Concentration DA in the striatum: 3 weeks after LPS
Excerpt: as §1
Mice were sacrificed at 3 weeks after LPS treatment.

LPS-treated mice [15] = experiment: Hypokinesia induced by intrastriatal LPS; conditions: 12 or 24 mg/kg, twice before bilateral intrastriatal LPS
Method: Male mice were anesthetized with chloral hydrate (200 mg/kg, i.p.) and positioned in a small-animal stereotaxic apparatus. […] LPS (2 μg in a volume of 2 μl of PBS) was injected into both sides of the striatum over a period of 2 min, and the injection needle was kept in place for 2 min after the injection. Control animals received striatal injection with PBS.
Ten min after the last treatment with each drug, locomotor activity was measured for 30 min. After measuring the locomotor activity (i.e. 40 min after the last drug injection), the ‘absolute turn angular’ was analyzed in a 3-min monitoring period using an automated video-tracking system (Noldus Information Technology, Wagenin, The Netherlands) to examine locomotor patterns. […] Eight test boxes (40×40×30 cm high) were operated simultaneously by an IBM computer. Animals were studied individually during locomotion in each test box, where they were adapted for 10 min before starting the experiment. […] The distance traveled in cm by the animals in horizontal locomotor activity was analyzed (13, 25, 27). Data were collected and analyzed between 0900 and 1700 hr.

MA-treated mice [16] = experiment: MA-induced behavioural sensitization; conditions: morphinan 20 mg/kg i.p., last 3 days of wash-out (Ex. 3.12)
Method: Morphinans (20 mg/kg, i.p.) were administered last 3 days of wash-out period.

[17] = tested on: kainate or maximal electric shock; conditions: kainate (24) or maximal electric shock (27); cited from earlier work
MA-treated mice [18] = experiment: Hypokinesia induced by MA; type: in vivo; conditions: 12 and 24 mg/kg; 3 days after final MA
[19] = tested on: NMDA receptor associated PCP sites; conditions: cited from earlier work
[20] = morphinan 12 (mg/kg) + MA, mean ± S.E.M., 8 animals
[21] = morphinan 12 (mg/kg) + LPS, mean ± S.E.M., 8 animals

Row | SMILES | effect on MA-induced hyperthermia (rectal temperature) (MA-treated mice [1]) | effect on MA-induced decrease in nigral TH-positive cells (MA-treated mice [2]) | effect on MA-induced FRA-IR in the striatum (MA-treated mice [3]) | affinity for σ1 receptors (σ1 receptors) | effect on cocaine-induced FRA-IR in the striatum (cocaine-treated mice [4]) | effect on MA-induced reductions in striatal DA, DOPAC and HVA (MA-treated mice [5]) | Concentration DOPAC in the striatum (MA-treated mice [5]; morphinan 12 (mg/kg) + MA) [ng/100 mg wet tissue] | Concentration HVA in the striatum (MA-treated mice [5]; morphinan 12 (mg/kg) + MA) [ng/100 mg wet tissue] | Concentration DA in the striatum (MA-treated mice [5]; [20]) [ng/100 mg wet tissue] | Concentration DOPAC in the striatum (MA-treated mice [5]; morphinan 24 (mg/kg) + MA) | Concentration HVA in the striatum (MA-treated mice [5]; morphinan 24 (mg/kg) + MA) | Concentration DA in the striatum (MA-treated mice [5]; morphinan 24 (mg/kg) + MA) | effect on MPTP-induced reductions in striatal DA, DOPAC and HVA (MPTP-treated mice [6]) | Concentration DOPAC in the striatum (MPTP-treated mice [6]; morphinan 12 (mg/kg) + MPTP) [ng/100 mg wet tissue] | Concentration HVA in the striatum (MPTP-treated mice [6]; morphinan 12 (mg/kg) + MPTP) [ng/100 mg wet tissue] | Concentration DA in the striatum (MPTP-treated mice [6]; morphinan 12 (mg/kg) + MPTP) [ng/100 mg wet tissue] | Concentration DOPAC in the striatum (MPTP-treated mice [6]; morphinan 24 (mg/kg) + MPTP) | Concentration HVA in the striatum (MPTP-treated mice [6]; morphinan 24 (mg/kg) + MPTP) | Concentration DA in the striatum (MPTP-treated mice [6]; morphinan 24 (mg/kg) + MPTP) | conditioned place preference (CPP) (C57 BL/6 mice [7]) | other results
1 | COc1ccc2c(c1)[C@@]13CCCC[C@H]1[C@@H](C2)N(C)CC3 [DM, 3-methoxy-17-methylmorphinan, reference compound] | attenuated by all morphinans used in this study | significantly attenuated the decrease in TH-positive cells | did not affect this induction of FRA-IR | high affinity ligands | Neither DM nor MM affects this induction of FRA-IR | significantly protected | 83 ± 9 | 82 ± 9 | 625 ± 74 | 98 ± 11^b ng/100 mg wet tissue | 94 ± 8^b ng/100 mg wet tissue | 782 ± 72^c ng/100 mg wet tissue | significantly protected | 69 ± 9 | 82 ± 9 | 520 ± 67 | 85 ± 10^b ng/100 mg wet tissue | 98 ± 11^b ng/100 mg wet tissue | 708 ± 82^b ng/100 mg wet tissue | also produced CPP | locomotor pattern (tracings) (C57 BL/6 mice [8]): produced marginal activity; marginal activity (circling behaviour; absolute turn angular) (C57 BL/6 mice [8]): significant increase in marginal activity; locomotor activity (total distance moved) (C57 BL/6 mice [8]): significantly increased locomotor activity; effect on MA-induced hyperlocomotion (MA-treated mice [9]): did not affect MA (1 mg/kg, i.p./day×7)-induced hyperactivity; effect on LPS-induced reduction in nigral TH-positive cells (LPS-treated mice [10]): significantly attenuated the reduction in TH-positive cells; effect on locomotor activity induced by low dose of cocaine (cocaine-treated mice [11]): enhanced locomotor activity produced by a low dose of cocaine; effect on hyperactivity induced by high dose of cocaine (cocaine-treated mice [11]): attenuated; effect on MPTP-induced decrease in nigral TH-positive cells (MPTP-treated mice [12]): significantly attenuated the decrease in TH-positive cells; effect on MPTP-induced reduction in locomotor activity (MPTP-treated mice [13]): significantly prevented MPTP-induced reduction in locomotor activity; effect on LPS-induced reductions in striatal DA, DOPAC and HVA (LPS-treated mice [14]): significantly protected; Concentration DOPAC in the striatum (LPS-treated mice [14]; morphinan 12 (mg/kg) + LPS): 68 ± 7 ng/100 mg wet tissue; Concentration HVA in the striatum (LPS-treated mice [14]; morphinan 12 (mg/kg) + LPS): 82 ± 9 ng/100 mg wet tissue; Concentration DA in the striatum (LPS-treated mice [14]; [21]): 612 ± 76 ng/100 mg wet tissue; Concentration DOPAC in the striatum (LPS-treated mice [14]; morphinan 24 (mg/kg) + LPS): 105 ± 12^b ng/100 mg wet tissue; Concentration HVA in the striatum (LPS-treated mice [14]; morphinan 24 (mg/kg) + LPS): 98 ± 8^b ng/100 mg wet tissue; Concentration DA in the striatum (LPS-treated mice [14]; morphinan 24 (mg/kg) + LPS): 892 ± 92^d ng/100 mg wet tissue; effect on LPS-induced decrease in locomotor activity (LPS-treated mice [15]): significantly prevented LPS-induced decrease in locomotor activity; effect on MA-induced behavioural sensitization (MA-treated mice [16]): did not alter behavioural sensitization by MA; anticonvulsant effect [17]: exhibited anticonvulsant effects; effect on MA-induced reduction in locomotor activity (MA-treated mice [18]): significantly prevented MA-induced reduction in locomotor activity
2 | C=CCOc1ccc2c(c1)[C@@]13CCCC[C@H]1[C@@H](C2)N(C)CC3 [AM, 3-allyloxy-17-methylmorphinan] | attenuated by all morphinans used in this study | significantly attenuated the decrease in TH-positive cells | apparently attenuated | high affinity ligands | apparently attenuated | significantly protected | 89 ± 9 | 79 ± 9 | 601 ± 62 | 96 ± 10^b ng/100 mg wet tissue | 92 ± 10^b ng/100 mg wet tissue | 749 ± 64^b ng/100 mg wet tissue | did not alter reductions in DA, DOPAC and HVA | 54 ± 6 | 69 ± 5 | 468 ± 52 | 66 ± 8 ng/100 mg wet tissue | 78 ± 7 ng/100 mg wet tissue | 539 ± 64 ng/100 mg wet tissue | almost no CPP effects | locomotor pattern (tracings) (C57 BL/6 mice [8]): did not produce significant marginal activity; marginal activity (circling behaviour; absolute turn angular) (C57 BL/6 mice [8]): did not significantly affect marginal activity; locomotor activity (total distance moved) (C57 BL/6 mice [8]): appeared to increase locomotor activity slightly; effect on MA-induced hyperlocomotion (MA-treated mice [9]): consistently effective in attenuating hyperlocomotion induced by MA; effect on locomotor activity induced by low dose of cocaine (cocaine-treated mice [11]): consistently attenuated locomotor activity induced by a low dose of cocaine; effect on hyperactivity induced by high dose of cocaine (cocaine-treated mice [11]): not uniform; effect on MPTP-induced reduction in locomotor activity (MPTP-treated mice [13]): neither AM nor DF affected significantly the locomotor hypoactivity; effect on LPS-induced reductions in striatal DA, DOPAC and HVA (LPS-treated mice [14]): did not alter LPS-induced reductions in DA, DOPAC and HVA levels; Concentration DOPAC in the striatum (LPS-treated mice [14]; morphinan 12 (mg/kg) + LPS): 64 ± 8 ng/100 mg wet tissue; Concentration HVA in the striatum (LPS-treated mice [14]; morphinan 12 (mg/kg) + LPS): 75 ± 6 ng/100 mg wet tissue; Concentration DA in the striatum (LPS-treated mice [14]; [21]): 454 ± 55 ng/100 mg wet tissue; Concentration DOPAC in the striatum (LPS-treated mice [14]; morphinan 24 (mg/kg) + LPS): 66 ± 7 ng/100 mg wet tissue; Concentration HVA in the striatum (LPS-treated mice [14]; morphinan 24 (mg/kg) + LPS): 70 ± 8 ng/100 mg wet tissue; Concentration DA in the striatum (LPS-treated mice [14]; morphinan 24 (mg/kg) + LPS): 452 ± 49 ng/100 mg wet tissue; effect on LPS-induced decrease in locomotor activity (LPS-treated mice [15]): neither AM nor DF were effective in attenuating locomotor hypoactivity; affinity for NMDA receptor associated PCP sites [19]: very low affinities; effect on MA-induced behavioural sensitization (MA-treated mice [16]): significantly reduced; anticonvulsant effect [17]: exhibited anticonvulsant effects; effect on MA-induced reduction in locomotor activity (MA-treated mice [18]): significantly prevented MA-induced reduction in locomotor activity
